According to patent publication US7049303B2, “Inhibition of viruses” (Medical Research Council, priority 2001, dated 2006):
Where two headings read alike, the source gives them in different places.

Assays:
[1] = tested on: human T-lymphocytes (CEM/O cells); assay: Toxicity: inhibition of proliferation of human T-lymphocytes (CEM/O cells); format: cell-based; settings: read-out: IC50 (50% inhibitory concentration), proliferation of CEM/O cells
Method: Following synthesis, the various compounds were tested in vitro for toxicity, by measuring the IC50 (i.e. the concentration which caused 50% inhibition) in respect of the inhibitory effects of the compounds on the proliferation of human T-lymphocytes (CEM/O cells).

HIV-1(IIIB) = assay: Serial passage of HIV-1 infected CEM cell cultures with sub-toxic drug, cytopathic effect (giant cell formation); format: cell-based; settings: for percentage of cytopathic effect (giant cell formation), passage number 1: passage 1; for percentage of cytopathic effect (giant cell formation), passage number 1 / percentage of cytopathic effect (giant cell formation), passage number 2 / percentage of cytopathic effect (giant cell formation), passage number 3 / percentage of cytopathic effect (giant cell formation), passage number 4 / percentage of cytopathic effect (giant cell formation), passage number 5 / percentage of cytopathic effect (giant cell formation), passage number 6 / percentage of cytopathic effect (giant cell formation), passage number 7: subcultivation every 5 days; for percentage of cytopathic effect (giant cell formation), passage number 2: passage 2; for percentage of cytopathic effect (giant cell formation), passage number 3: passage 3; for percentage of cytopathic effect (giant cell formation), passage number 4: passage 4; for percentage of cytopathic effect (giant cell formation), passage number 5: passage 5; for percentage of cytopathic effect (giant cell formation), passage number 6: passage 6; for percentage of cytopathic effect (giant cell formation), passage number 7: passage 7
Method: HIV-1 infected CEM cells were subcultured every 4–5 days in the presence of sub-toxic concentrations (in the range of 10–20% of their respective IC50 value) of the compounds under test. At each sub-culture, cell-free supernatant (10–20 μl) was transferred to fresh 1 ml cell cultures. At regular intervals the cultures were inspected microscopically to assess the extent of any cytopathic effect (giant cell formation). As an alternative, it is also possible to perform an immunoassay to quantify viral p24 production.
The preliminary results for up to 7 passages are shown below in Table 3.

SMILES | IC50 ([1]; T-lymphocyte) [µM] | percentage of cytopathic effect (giant cell formation), passage number 1 (HIV-1(IIIB); 400 μM) [%] | percentage of cytopathic effect (giant cell formation), passage number 2 (HIV-1(IIIB); 400 μM) [%] | percentage of cytopathic effect (giant cell formation), passage number 3 (HIV-1(IIIB); 400 μM) [%] | percentage of cytopathic effect (giant cell formation), passage number 4 (HIV-1(IIIB); 400 μM) [%] | percentage of cytopathic effect (giant cell formation), passage number 5 (HIV-1(IIIB); 400 μM) [%] | percentage of cytopathic effect (giant cell formation), passage number 6 (HIV-1(IIIB); 400 μM) [%] | percentage of cytopathic effect (giant cell formation), passage number 7 (HIV-1(IIIB); 400 μM) [%] | other results
O=C1NC2=NOCCC2=CN1[C@H]1C[C@H](O)[C@@H](CO)O1 [JA21, 6-(2-deoxy-β-D-ribofuranosyl)-3,4-dihydro-8H-pyrimido[4,5-c][1,2] oxazin-7-one, reference compound] | 690 ± 14 | 100 | 100 | 25 | 50 | 37 | 12 | 6 | –
O=C1NC2=NOCCC2=CN1[C@@H]1O[C@H](CO)[C@@H](O)[C@H]1O [JA22, 6-(β-D-ribofuranosyl)-3,4-dihydro-8H-pyrimido[4,5-c][1,2] oxazin-7-one] | 698 ± 11 | 100 | 100 | 100 | 100 | 100 | 100 | 100 | –
CNc1nc(N)nc2c1ncn2[C@@H]1O[C@H](CO)[C@@H](O)[C@H]1O [JA23, 2-amino-N^6-methyladenosine] | 622 ± 8 | 100 | 100 | 12 | 25 | 3 | 0 | 0 | antiviral activity (inhibition of HIV replication) in words (HIV-1(IIIB); HIV-1 infected CEM cells, sub-toxic concentrations, up to 7 passages): moderately effective
NNc1nc(N)nc2c1ncn2[C@@H]1O[C@H](CO)[C@@H](O)[C@H]1O [JA24, N^6-amino-9-β-D-ribofuranosyl-2,6-diaminopurine] | – | – | – | – | – | – | – | – | IC50 [1]: 62 ± 6 µM; percentage of cytopathic effect (giant cell formation), passage number 1 (HIV-1(IIIB); 4 μM): 100%; percentage of cytopathic effect (giant cell formation), passage number 2 (HIV-1(IIIB); 4 μM): 100%; percentage of cytopathic effect (giant cell formation), passage number 3 (HIV-1(IIIB); 4 μM): 19%; percentage of cytopathic effect (giant cell formation), passage number 4 (HIV-1(IIIB); 4 μM): 100%; percentage of cytopathic effect (giant cell formation), passage number 5 (HIV-1(IIIB); 4 μM): 100%; percentage of cytopathic effect (giant cell formation), passage number 6 (HIV-1(IIIB); 4 μM): 100%; percentage of cytopathic effect (giant cell formation), passage number 7 (HIV-1(IIIB); 4 μM): 12%; percentage of cytopathic effect (giant cell formation), passage number 1 (HIV-1(IIIB); 10 μM): 100%; percentage of cytopathic effect (giant cell formation), passage number 2 (HIV-1(IIIB); 10 μM): 100%; percentage of cytopathic effect (giant cell formation), passage number 3 (HIV-1(IIIB); 10 μM): 25%; percentage of cytopathic effect (giant cell formation), passage number 4 (HIV-1(IIIB); 10 μM): 100%; percentage of cytopathic effect (giant cell formation), passage number 5 (HIV-1(IIIB); 10 μM): 100%; percentage of cytopathic effect (giant cell formation), passage number 6 (HIV-1(IIIB); 10 μM): 100%; percentage of cytopathic effect (giant cell formation), passage number 7 (HIV-1(IIIB); 10 μM): 25%
